What all share (format): biochemical
The target of assay [1] is WT EZH2 (EZH2 4 protein complex: EZH2, EED, SUZ12, RbAp48) (Homo sapiens, UniProt O75530+Q09028+Q15022+Q15910). The assay is described as follows: WT EZH2 nucleosome assay. The conditions noted are these: nucleosome assay, 5 nM EZH2 4-protein complex, 1.5 μM SAM; read-out: WT EZH2 IC50. Put shortly:
(§1)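 Radiometric methyltransferase assay: 5 nM EZH2 four-protein complex, 1.5 μM 3H-SAM, 25 μg/mL HeLa oligonucleosomes, 50 nM recombinant H1 in 100 mM Tris pH 8.5, 4 mM DTT, 0.01% Tween-20. 60 min reaction, TCA quench, filter capture, scintillation counting; IC50 from 11-point 4-parameter fit; % effect at 20 μM.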

Assay [2] has as its target WT EZH2 (EZH2 4 protein complex: EZH2, EED, SUZ12, RbAp48) (Homo sapiens, UniProt Q15910). Briefly: WT EZH2 nucleosome assay. The conditions noted are these: compound at 20 μM; nucleosome assay. Summed up:
as §1

In assay [3] the target is EZH2PRC2 mutant Y641N (Homo sapiens, UniProt Q15910, Y641N). The assay is described as follows: EZH2PRC2 mutant Y641N nucleosome assay. The conditions noted are these: read-out: EZH2PCR2 Mutant Y641N IC50. Here is the method: Nucleosome Assay Protocol:
A. Compound preparation • 1. Prepare 10 mM stock solutions in 100% DMSO from solid material • 2. Serial dilute 10 mM compound stocks either 2 or 3-fold in 100% DMSO to generate compounds for 11 point dose response
B. Reagent preparation • 1. Prepare 1× assay buffer containing 100 mM Tris pH 8.5, 4 mM DTT and 0.01% Tween-20 • 2. Dilute purified HeLA oligonucleosomes and recombinant histone H1 (New England Biolabs) in assay buffer to 1.67×. • 3. Dilute EZH2 4 protein complex (EZH2, EED, SUZ12, RbAp48) to 3.5× in assay buffer • 4. Prepare 10×^3H SAM solution in assay buffer using 0.94 μCi/well of radioactive SAM (Perkin Elmer) and sufficient non-labeled SAM (Sigma) for 1.5 μM final concentration. • 5. Dilute TCA to 20% in DI water
C. Enzyme reaction • 1. Final reaction conditions are 5 nM EZH2 4-protein complex, 1.5 μM SAM, 25 μg/mL oligonucleosomes, 50 nM rH1 in a 50 μl reaction volume. • 2. Add 1 μl of diluted compound to the assay plate (96-well V-bottom polypropylene plates) or 1 μl of DMSO for control wells. • 3. Add 30 μl of nucleosomes to the assay plate • 4. Add 14 μl of EZH2 4 protein complex to the assay plate • 5. Add 5 μl of ^3H SAM to start the reaction. • 6. Stop the reaction after 60 minutes with the addition of 100 μl of 20% TCA • 7. Transfer 150 μl of quenched reaction into a prepared filterplate (Millipore #MSIPN4B10) • 8. Apply vacuum to the filterplate to filter the reaction mix through the membrane. • 9. Wash the filterplate with 8×200 μl of PBS, blot dry and dry in an oven for 30 minutes • 10. Add 50 μl of microscint-20 scintillation fluid (Perkin Elmer) to each well, wait 30 minutes and count on a liquid scintillation counter.
D. Data analysis • 1. IC50 values were determined by fitting the data to a 4-parameter IC50 equation using proprietary curve fitting software.
Wild type (WT) EZH2% Effect at 20 μM and IC50 values (μM) generated in WT EZH2 or EZH2PRC2 mutant Y641N nucleosome assays are provided in Table 3 below. A blank entry in the table indicates the data was not generated in that assay.

Sequence of EZH2PRC2 mutant Y641N (Q15910 whole entry Y641N): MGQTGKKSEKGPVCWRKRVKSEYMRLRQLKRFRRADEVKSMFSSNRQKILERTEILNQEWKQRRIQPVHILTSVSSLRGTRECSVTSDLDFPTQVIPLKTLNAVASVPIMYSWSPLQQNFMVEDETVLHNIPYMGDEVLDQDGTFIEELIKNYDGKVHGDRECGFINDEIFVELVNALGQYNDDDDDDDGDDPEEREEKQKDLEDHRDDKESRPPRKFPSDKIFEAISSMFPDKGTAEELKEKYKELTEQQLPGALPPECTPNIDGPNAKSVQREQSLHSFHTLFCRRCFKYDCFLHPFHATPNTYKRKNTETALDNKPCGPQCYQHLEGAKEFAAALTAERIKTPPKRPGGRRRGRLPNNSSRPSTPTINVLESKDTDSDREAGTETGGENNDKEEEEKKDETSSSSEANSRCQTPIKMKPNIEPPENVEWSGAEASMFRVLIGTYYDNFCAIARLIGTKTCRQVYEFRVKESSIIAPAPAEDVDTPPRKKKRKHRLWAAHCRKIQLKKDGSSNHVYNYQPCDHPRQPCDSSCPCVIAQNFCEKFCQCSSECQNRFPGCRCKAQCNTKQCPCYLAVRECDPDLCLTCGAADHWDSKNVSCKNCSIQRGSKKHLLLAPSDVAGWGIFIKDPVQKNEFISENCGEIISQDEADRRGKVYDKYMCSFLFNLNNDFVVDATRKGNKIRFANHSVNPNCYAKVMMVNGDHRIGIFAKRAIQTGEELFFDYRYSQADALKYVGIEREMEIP
Sequence of EZH2PRC2 mutant Y641N (O75530 whole entry partner): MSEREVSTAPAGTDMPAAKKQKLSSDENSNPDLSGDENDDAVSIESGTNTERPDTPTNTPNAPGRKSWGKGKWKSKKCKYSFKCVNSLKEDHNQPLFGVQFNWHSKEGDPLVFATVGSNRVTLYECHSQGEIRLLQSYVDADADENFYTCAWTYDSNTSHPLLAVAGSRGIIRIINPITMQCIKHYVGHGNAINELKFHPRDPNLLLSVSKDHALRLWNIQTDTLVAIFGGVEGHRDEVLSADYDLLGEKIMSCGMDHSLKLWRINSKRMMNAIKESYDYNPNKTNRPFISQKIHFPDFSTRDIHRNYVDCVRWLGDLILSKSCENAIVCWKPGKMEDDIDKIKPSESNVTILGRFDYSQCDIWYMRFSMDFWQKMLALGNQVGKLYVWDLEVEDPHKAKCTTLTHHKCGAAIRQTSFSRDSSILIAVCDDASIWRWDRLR
Sequence of EZH2PRC2 mutant Y641N (Q15022 whole entry partner): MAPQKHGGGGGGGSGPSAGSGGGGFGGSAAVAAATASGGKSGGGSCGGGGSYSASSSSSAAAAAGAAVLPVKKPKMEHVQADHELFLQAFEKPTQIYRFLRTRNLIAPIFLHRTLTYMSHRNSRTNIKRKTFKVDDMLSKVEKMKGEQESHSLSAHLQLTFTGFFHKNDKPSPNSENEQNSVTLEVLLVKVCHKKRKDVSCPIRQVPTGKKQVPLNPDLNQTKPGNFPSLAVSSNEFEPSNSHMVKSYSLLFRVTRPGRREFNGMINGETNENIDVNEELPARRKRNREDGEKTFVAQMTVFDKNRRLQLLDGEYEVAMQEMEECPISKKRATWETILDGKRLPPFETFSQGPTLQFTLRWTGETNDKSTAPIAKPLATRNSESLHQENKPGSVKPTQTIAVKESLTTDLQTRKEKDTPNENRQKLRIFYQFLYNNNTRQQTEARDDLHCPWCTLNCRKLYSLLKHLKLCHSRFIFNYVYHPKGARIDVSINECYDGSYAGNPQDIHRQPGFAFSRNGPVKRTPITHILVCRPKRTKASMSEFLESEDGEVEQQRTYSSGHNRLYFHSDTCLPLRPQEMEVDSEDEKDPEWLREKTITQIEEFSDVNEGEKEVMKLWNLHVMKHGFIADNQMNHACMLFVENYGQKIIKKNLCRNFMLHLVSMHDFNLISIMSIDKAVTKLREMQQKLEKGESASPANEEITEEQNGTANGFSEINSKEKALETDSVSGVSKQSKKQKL
Sequence of EZH2PRC2 mutant Y641N (Q09028 whole entry partner): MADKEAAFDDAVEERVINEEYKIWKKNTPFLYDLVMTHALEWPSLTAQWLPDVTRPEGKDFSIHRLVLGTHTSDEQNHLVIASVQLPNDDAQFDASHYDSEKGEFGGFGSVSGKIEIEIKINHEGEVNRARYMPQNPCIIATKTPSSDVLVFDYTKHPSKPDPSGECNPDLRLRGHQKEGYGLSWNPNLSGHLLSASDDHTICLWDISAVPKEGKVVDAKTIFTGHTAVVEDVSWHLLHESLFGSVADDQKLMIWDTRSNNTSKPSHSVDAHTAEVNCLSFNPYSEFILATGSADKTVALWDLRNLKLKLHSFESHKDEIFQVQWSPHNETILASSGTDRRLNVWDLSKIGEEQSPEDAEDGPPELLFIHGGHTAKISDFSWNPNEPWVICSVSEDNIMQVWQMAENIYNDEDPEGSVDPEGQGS
Sequence of WT EZH2 (EZH2 4 protein complex: EZH2, EED, SUZ12, RbAp48) (Homo sapiens, UniProt Q15910) (Q15910 whole entry): as the sequence (Q15910 whole entry Y641N) above, with N641Y counted along it
Sequence of WT EZH2 (EZH2 4 protein complex: EZH2, EED, SUZ12, RbAp48) (Homo sapiens, UniProt Q15910) (O75530 whole entry partner): as the sequence (O75530 whole entry partner) above
Sequence of WT EZH2 (EZH2 4 protein complex: EZH2, EED, SUZ12, RbAp48) (Homo sapiens, UniProt Q15910) (Q15022 whole entry partner): as the sequence (Q15022 whole entry partner) above
Sequence of WT EZH2 (EZH2 4 protein complex: EZH2, EED, SUZ12, RbAp48) (Homo sapiens, UniProt Q15910) (Q09028 whole entry partner): as the sequence (Q09028 whole entry partner) above
Sequence of WT EZH2 (EZH2 4 protein complex: EZH2, EED, SUZ12, RbAp48) (Homo sapiens, UniProt O75530+Q09028+Q15022+Q15910) (Q15910 whole entry): as the sequence (Q15910 whole entry Y641N) above, with N641Y counted along it
Sequence of WT EZH2 (EZH2 4 protein complex: EZH2, EED, SUZ12, RbAp48) (Homo sapiens, UniProt O75530+Q09028+Q15022+Q15910) (O75530 whole entry partner): as the sequence (O75530 whole entry partner) above
Sequence of WT EZH2 (EZH2 4 protein complex: EZH2, EED, SUZ12, RbAp48) (Homo sapiens, UniProt O75530+Q09028+Q15022+Q15910) (Q15022 whole entry partner): as the sequence (Q15022 whole entry partner) above
Sequence of WT EZH2 (EZH2 4 protein complex: EZH2, EED, SUZ12, RbAp48) (Homo sapiens, UniProt O75530+Q09028+Q15022+Q15910) (Q09028 whole entry partner): as the sequence (Q09028 whole entry partner) above

The term IC50 denotes the point on the concentration scale where inhibition reaches its midpoint. As for `COc1cccc(C(=O)NCc2c(C)cc(C)[nH]c2=O)c1F` [Example 137, N-[(4,6-dimethyl-2-oxo-1,2-dihydropyridin-3-yl)methyl]-2-fluoro-3-methoxybenz-amide], the IC50 in assay [1] is 167 µM. In addition, the “% Effect in WT EZH2 at 20 μM” value in assay [2] came to 20.924%.
`Cc1cc(C)c(CNC(=O)c2cc(-c3cnn(C)c3)nc(OC(C)C)c2Cl)c(=O)[nH]1` [Example 33, 3-chloro-N-[(4,6-dimethyl-2-oxo-1,2-dihydropyridin-3-yl)methyl]-2-isopropoxy-6-(1-methyl-1H-pyrazol-4-yl)isonicotinamide]: the IC50 in assay [1] worked out at 0.78 µM. Further, the “% Effect in WT EZH2 at 20 μM” value in assay [2] was determined as 92.965%.
As to `Cc1cc(C)c(CNC(=O)c2ccnc(OC(C)C)c2F)c(=O)[nH]1` [Example 138, N-[(4,6-dimethyl-2-oxo-1,2-dihydropyridin-3-yl)methyl]-3-fluoro-2-isopropoxyiso-nicotinamide], in assay [1], the IC50 is 172 µM. In addition, the “% Effect in WT EZH2 at 20 μM” value in assay [2] was 44.736%.
On the same counts, the results for `Cc1cc(C)c(CNC(=O)c2nccc(OC(C)C)c2C)c(=O)[nH]1` [Example 82, N-[(4,6-dimethyl-2-oxo-1,2-dihydropyridin-3-yl)methyl]-4-isopropoxy-3-methylpyridine-2-carboxamide] are 7.79 µM and 69.830%.
As for `Cc1cc(C)c(CNC(=O)c2ncnc(OC(C)C)c2Cl)c(=O)[nH]1` [Example 85], the IC50 in assay [1] turned out to be 9.12 µM. Moreover, in assay [2], the “% Effect in WT EZH2 at 20 μM” value was found to be 69.248%.
As to `COc1ccc(C(=O)NCc2c(C)cc(C)[nH]c2=O)c(Cl)c1OC` [Example 127, 2-chloro-N-[(4,6-dimethyl-2-oxo-1,2-dihydropyridin-3-yl)methyl]-3,4-dimethoxy-benzamide], in assay [1], the IC50 turned out to be 53.3 µM. Besides, the “% Effect in WT EZH2 at 20 μM” value in assay [2] turned out to be 35.052%.
`COc1cc(OC)c(Cl)c(C(=O)NCc2c(C)cc(C)[nH]c2=O)c1Cl` [Example 126, 2,6-dichloro-N-[(4,6-dimethyl-2-oxo-1,2-dihydropyridin-3-yl)methyl]-3,5-dimethoxybenz-amide]: the IC50 in assay [1] came out at 52 µM. The “% Effect in WT EZH2 at 20 μM” value in assay [2] came out at 38.121%.
For `Cc1cc(C)c(CNC(=O)c2cc(-c3cnn(C)c3)cc(OC(C)C)c2Cl)c(=O)[nH]1` [Example 26, 2-chloro-N-[(4,6-dimethyl-2-oxo-1,2-dihydropyridin-3-yl)methyl]-3-isopropoxy-5-(1-methyl-1H-pyrazol-4-yl)benzamide], the IC50 in assay [1] came to 0.93 µM. In assay [2], the “% Effect in WT EZH2 at 20 μM” value amounted to 93.705%.
With `Cc1cc(C)c(CNC(=O)c2cc(Cl)cc(-c3ccnn3C)c2C)c(=O)[nH]1` [Example 5, 5-chloro-N-[(4,6-dimethyl-2-oxo-1,2-dihydropyridin-3-yl)methyl]-2-methyl-3-(1-methyl-1H-pyrazol-5-yl)benzamide], the concentration for half-maximal inhibition (IC50) in assay [1] worked out at 0.45 µM. Further, in assay [2], the “% Effect in WT EZH2 at 20 μM” value was 94.88%.
As to `COc1ccc(OC)c(C(=O)NCc2c(C)cc(C)[nH]c2=O)c1Cl` [Example 119, 2-chloro-N-[(4,6-dimethyl-2-oxo-1,2-dihydropyridin-3-yl)methyl]-3,6-dimethoxy-benzamide], the IC50 in assay [1] stood at 37.4 µM. The “% Effect in WT EZH2 at 20 μM” value in assay [2] was 44.087%.
As for `COc1cccc(C(=O)NCc2c(C)cc(C)[nH]c2=O)c1Br` [Example 66, 2-bromo-N-[(4,6-dimethyl-2-oxo-1,2-dihydropyridin-3-yl)methyl]-3-methoxybenza-mide], in assay [1], the IC50 is 4.88 µM. Also, in assay [2], the “% Effect in WT EZH2 at 20 μM” value came to 76.288%.
Turning to `CCCc1c(OC)cccc1C(=O)NCc1c(C)cc(C)[nH]c1=O` [Example 128, N-[(4,6-dimethyl-2-oxo-1,2-dihydropyridin-3-yl)methyl]-3-methoxy-2-propylbenzamide], the IC50 in assay [1] came out at 54.3 µM. For the same compound, the “% Effect in WT EZH2 at 20 μM” value in assay [2] is reported as 38.993%.
`Cc1cc(C)c(CNC(=O)c2c(Cl)ccc(OCCN3CCCC3)c2Cl)c(=O)[nH]1` [Example 129, 2,6-dichloro-N-[(4,6-dimethyl-2-oxo-1,2-dihydropyridin-3-yl)methyl]-3-(2-pyrrolidin-1-ylethoxy)benza-mide]: the half-inhibitory concentration (IC50) in assay [1] came out at 54.3 µM. In assay [2], the “% Effect in WT EZH2 at 20 μM” value is on record as 32.145%.
Take `Cc1cc(C)c(CNC(=O)c2cccc(OC(C)C)c2Cl)c(=O)[nH]1` [Example 46, 2-chloro-N-[(4,6-dimethyl-2-oxo-1,2-dihydropyridin-3-yl)methyl]-3-isopropoxy-benzamide]: the IC50 in assay [1] amounted to 1.63 µM. The “% Effect in WT EZH2 at 20 μM” value in assay [2] stood at 93.582%.
In the case of `Cc1cc(C)c(CNC(=O)c2c(F)ccc(OC(C)C)c2Cl)c(=O)[nH]1` [Example 86, 2-chloro-N-[(4,6-dimethyl-2-oxo-1,2-dihydropyridin-3-yl)methyl]-6-fluoro-3-isopropoxy-benzamide], the IC50 in assay [1] is 9.38 µM. In addition, the “% Effect in WT EZH2 at 20 μM” value in assay [2] was 64.416%.
With `Cc1cc(C)c(CNC(=O)c2cc(-c3ccc4c(c3)CS(=O)(=O)C4)cc(-c3ccnn3C)c2C)c(=O)[nH]1` [Example 35, N-[(4,6-dimethyl-2-oxo-1,2-dihydropyridin-3-yl)methyl]-5-(2,2-dioxido-1,3-dihydro-2-benzothien-5-yl)-2-methyl-3-(1-methyl-1H-pyrazol-5-yl)benzamide], the concentration for half-maximal inhibition (IC50) in assay [1] was determined as 0.042 µM; in assay [3] it was 0.35 µM.
On the same counts, the results for `Cc1cc(C)c(CNC(=O)c2nc(N3CCCC3)nc(N3CCC[C@@H]3C)c2C)c(=O)[nH]1` [Example 88, N-[(4,6-dimethyl-2-oxo-1,2-dihydropyridin-3-yl)methyl]-5-methyl-6-[(2S)-2-methylpyrroli-din-1-yl]-2-pyrrolidin-1-ylpyrimidine-4-carboxamide] are 9.82 µM and 34.8 µM.
With `Cc1cc(-c2cc(Cl)cc(C(=O)NCc3c(C)cc(C)[nH]c3=O)c2C)n(C)n1` [Example 77, 5-chloro-N-[(4,6-dimethyl-2-oxo-1,2-dihydropyridin-3-yl)methyl]-3-(1,3-dimethyl-1H-pyrazol-5-yl)-2-methylbenz-amide], the IC50 in assay [1] amounted to 7.03 µM. The “% Effect in WT EZH2 at 20 μM” value in assay [2] is reported as 69.743%.
Regarding `Cc1cc(C)c(CNC(=O)c2cc(-c3cnc(N(C)C)nc3)cc(-c3ccnn3C)c2C)c(=O)[nH]1` [Example 13, 5-[2-(dimethylamino)pyrimidin-5-yl]-N-[(4,6-dimethyl-2-oxo-1,2-dihydropyridin-3-yl)methyl]-2-methyl-3-(1-methyl-1H-pyrazol-5-yl)benzamide], the figures for the IC50 in assay [1] and in assay [3] were 0.038 µM and 0.62 µM, respectively.
Turning to `Cc1cc(C)c(CNC(=O)c2ccnc(OC(C)C)c2Cl)c(=O)[nH]1` [Example 65, 3-chloro-N-[(4,6-dimethyl-2-oxo-1,2-dihydropyridin-3-yl)methyl]-2-isopropoxyiso-nicotinamide], the IC50 in assay [1] came out at 4.51 µM. The “% Effect in WT EZH2 at 20 μM” value in assay [2] is 71.459%.
For `COc1cccc(C(=O)NCc2c(C)cc(C)[nH]c2=O)c1C#N` [Example 135, 2-cyano-N-[(4,6-dimethyl-2-oxo-1,2-dihydropyridin-3-yl)methyl]-3-methoxybenz-amide], the figures for the half-inhibitory concentration (IC50) in assay [1] and in assay [3] were 141 µM and over 200 µM, respectively. Further, in assay [2], the “% Effect in WT EZH2 at 20 μM” value was 62.306%.
Turning to `COc1cccc(C(=O)NCc2c(C)cc(C)[nH]c2=O)c1Cl` [Example 79, 2-chloro-N-[(4,6-dimethyl-2-oxo-1,2-dihydropyridin-3-yl)methyl]-3-methoxybenza-mide], the half-inhibitory concentration (IC50) in assay [1] was 7.52 µM; in assay [3], 43.1 µM. Further, the “% Effect in WT EZH2 at 20 μM” value in assay [2] is on record as 71.325%.
On to `COc1c(OC(C)C)cccc1C(=O)NCc1c(C)cc(C)[nH]c1=O` [Example 113, N-[(4,6-dimethyl-2-oxo-1,2-dihydropyridin-3-yl)methyl]-3-isopropoxy-2-methoxy-benzamide], for which the IC50 in assay [1] is 27.1 µM. The “% Effect in WT EZH2 at 20 μM” value in assay [2] was 43.834%.

The record behind these values is US20170152239A1, “BENZAMIDE AND HETEROBENZAMIDE COMPOUNDS” (PFIZER INC., priority 2012, published 2017).
